We go through one compound from patent US11702646B2, “Methods for modulating RNA splicing” (PTC THERAPEUTICS, INC., priority 2016, dated 2023).

The structures appear in SMILES notation.

For test [1], the system named is iExons for certain genes (as specified in the figures). Nature of the test: Dose dependent production of iExons in the presence of compound or control (DMSO). It is filed as cell-based. The settings on record: FIGS. 2A-2D, versus control (DMSO). The procedure: In some embodiments, a dose-response assay is performed. […] In another embodiment, the dose-response assay comprises: (a) contacting each well of a microtiter plate containing cells with a different concentration of a compound of Formula (I) or a form thereof; (b) determining the amount of an RNA transcript produced by cells in each well; and (c) assessing the change of the amount of the RNA transcript at the different concentrations of the compound or form thereof. […]
In specific embodiments, the amount of alternatively spliced forms of the RNA transcripts of a particular gene are measured to see if there is an alteration in the amount of one, two or more alternatively spliced forms of the RNA transcripts of the gene. In some embodiments, the amount of an isoform(s) encoded by a particular gene is measured to see if there is an alteration in the amount of the isoform(s). In certain embodiments, the levels of spliced forms of RNA are quantified by RT-PCR, RT-qPCR, RNA-Seq, digital color-coded barcode technology, or Northern blot. […] In certain embodiments, splicing is measured in vitro using nuclear extracts. In some embodiments, detection is based on measuring radioactivity or fluorescence. […] In a specific embodiment, modulation of RNA transcripts is assessed as described in the Examples described herein.

For test [2], the system named is RNA transcripts of genes having intronic REMS elements. Nature of the test: Change in isoform abundance and iExon/exon inclusion (ΔPSI, Fisher's Exact Test) in the presence of compound. The settings on record: doses ranging from 0.3 μM to 3 μM, statistically significant adjusted Fisher's Exact Test p value. It is filed as cell-based. The procedure:
Techniques known to one skilled in the art may be used to determine the amount of an RNA transcript(s). In some embodiments, the amount of one, two, three or more RNA transcripts is measured using deep sequencing, such as ILLUMINA® RNASeq, ILLUMINA® next generation sequencing (NGS), ION TORRENT™ RNA next generation sequencing, 454™ pyrosequencing, or Sequencing by Oligo Ligation Detection (SOLID™). In other embodiments, the amount of multiple RNA transcripts is measured using an exon array, such as the GENECHIP® human exon array. In certain embodiments, the amount of one, two, three or more RNA transcripts is determined by RT-PCR. In other embodiments, the amount of one, two, three or more RNA transcripts is measured by RT-qPCR or digital color-coded barcode technology. Techniques for conducting these assays are known to one skilled in the art. […]
Where “U” represents the value for probability of iExon inclusion (a+b)/2/[(a+b)/2+c]^U in the absence of the compound; and, where “C” represents the value for probability of iExon inclusion (a+b)/2/[(a+b)/2+c]^C in the presence of the compound. The values for “a” and “b” represent the number of reads supporting inclusion of an iExon in an RNA transcript. In other words, the “a” value is derived from the amount of reads for a first intronic nucleotide sequence comprising, in 5′ to 3′ order: a first exon having a 5′ splice site operably linked and upstream from a first intronic nucleotide sequence comprising a first branch point further operably linked and upstream from a first intronic 3′ splice site (upstream of the nascent iExon). The “b” value is derived from the amount of reads for a second intronic nucleotide sequence comprising, in 5′ to 3′ order: an iREMS sequence operably linked downstream from the first intronic 3′ splice site and upstream from a second intronic nucleotide sequence comprising a second branch point further operably linked and upstream from a second intronic 3′ splice site of a second exon. The value for “c” represents the number of reads supporting exclusion of an iExon. […]

Consider `CCc1nc(C)cn2nc(-c3cc(=O)n4cc(C5CCN(C)CC5)cc(C)c4n3)cc12` [Compound 774], for which the “dose dependent production of iExons for certain genes” value in test [1] was “dose dependent production of iExons”. The “effect on change in isoform abundance as a result of having intronic REMS elements” value in test [2] (genes of Table 7) was “demonstrate an effect on change in isoform abundance”. Also, the “effect on inclusion of an iExon with a corresponding change in isoform abundance” value in test [2] (genes of Table 7a) was “demonstrate an effect on inclusion of an iExon with a corresponding change in isoform abundance”. Further, the “effect on inclusion of an exon with a corresponding change in isoform abundance” value in test [2] (genes of Table 7b) is “demonstrate an effect on inclusion of an exon with a corresponding change in isoform abundance”.
